Experimental data reported in US20140343050A1, “PRODRUGS OF D-ISOGLUTAMYL-[D/L]-TRYPTOPHAN” (APTOEX TECHNOLOGIES, INC., priority 2011, published 2014).

Key:
[1] = Pharmacokinetic study in rats, oral bioavailability (plasma Apo805); format: in vivo; settings: male Sprague-Dawley rats, oral 5 mg/kg, in words
Method: Groups of five male Sprague-Dawley rats weighing 250 to 300 g were utilized per dosing group. One day prior to dosing, venous and arterial catheters (made of 20 cm long polyurethane coiled tubing, and filled with 100 units/mL heparinized saline) were implanted into the jugular vein and carotid artery of each rat. Rats were fasted overnight prior to oral dosing and fed approximately 2 hours post-dosing. All dosing and blood sampling was performed on fully conscious rats. Tested compounds were administered either by oral gavage as solutions in water, or by intravenous injection (Apo805K1 only) as solution in 0.9% sodium chloride, final pH 7.0, at doses equivalent to 5 mg/kg (per Apo805 content). Blood (0.3 mL) was sampled from each animal from the carotid artery for up to 30 hours post-dosing, each sampling followed by an equivalent naive-blood replacement. […]
A Sciex API 365 LC/MS/MS […] equipped with Ionics EP10+ and HSID, was used, A chiral column (Supelco-Astec CHIROBIOTIC™ TAG), 100×2.1 mm, 5 μm was used at ambient temperature. […] Samples were analysed for the concentration of Apo805 (thymodepressin).
Non-compartmental analysis was performed using WinNonlin 52 software, on individual animal data. Bioavailability was calculated as a ratio of AUCINF—D after oral dosing of test compound to AUCINF—D after IV dosing of Apo805K1. […]

human hepatocytes = assay: Biotransformation to Apo805 in human hepatocytes; settings: for Half-life for bioconversion to Apo805 (h), Human hepatocytes: 100 μM prodrug, pooled cryopreserved human hepatocytes
Method: LiverPool® cryopreserved human hepatocytes (pooled from 10 male donors) was obtained from Celsis In Vitro Technologies. The hepatocytes were stored in liquid nitrogen until used. Just before the assay, the hepatocytes were quickly thawed at 37° C. and centrifuged at 100×g for 10 min. The media was removed and cells were re-suspended in PBS at a density of 4×10^6 cells/mL. […] After 10, 20, 60, 120 and 240 min of incubation, the reaction was quenched by adding an equal volume of 5% (w/v) TCA. The “time 0” sample was generated by adding TCA before the test compound. After brief vortexing and 10-min incubation on ice, samples were centrifuged (16,000×g, 10 min) and the supernatants were analyzed by HPLC with UV detection.
(§1) HPLC analysis was done using an Agilent 1100 series HPLC system consisting of a programmable multi-channel pump, auto-injector, vacuum degasser and HP detector controlled by Agilent HPLC218 Chem Station Rev.A.09.03 software for data acquisition and analysis. A gradient method was used for the determination of all pro-drugs and their hydrolysis products including Apo805 on an Agilent Eclipse XDB, C18 column (part #963967-902, 150×4.6 mm, 3.5 μm) with the following chromatographic conditions: • Temperature: Ambient • Mobile phase: A=Aqueous phase: 10 mM Tris-HCl, 2 mM EDTA, pH 7.4 B=Organic phase: Acetonitrile • Gradient method: Time: 0 min 5% B, 25 min 50% B, 35 min 80% B, 45 min 5% B, 50 min 5% B. • Mobile phase flow rate: 1.0 mL/min • Injection volume: 50 μL • Data acquisition time: 30 min • Detection wavelength: 280 nm; 4 nm bandwidth, ref. 360 nm, • 4 nm bandwidth The chromatograms at λ=280 nm were analyzed. Peak area (mAU*s) was used for quantitation of pro-drugs, intermediates and thymodepressin (Apo805).

[2] = Stability / bioconversion to Apo805 in human blood; settings: 100 μM prodrug, pooled human blood, 37° C.
Source text: as §1
Blood was collected from healthy volunteers, both male and female, in Becton Dickinson ACD Vacutainer™ containing ACD solution A (22.0 g/L trisodium citrate, 8.0 g/L citric acid, 24.5 g/L dextrose). […] After 10-min incubation on ice, samples were centrifuged (16,000×g, 10 min) and the supernatants were analyzed by HPLC.

oral bioavailability in rats [1]	Half-life for bioconversion to Apo805 (h), Human blood [2] [h]	Half-life for bioconversion to Apo805 (h), Human hepatocytes (human hepatocytes) [h]	SMILES	further results
show oral bioavailability	–	–	CC(OC(=O)OC1CCCCC1)OC(=O)[C@@H](Cc1c[nH]c2ccccc12)NC(=O)CC[C@@H](N)C(=O)O (stereo partly drawn) [Apo843, H-D-Glu(D-Trp-O—CH(CH3)—O—CO—O-cyclohexyl)-OH]	–
show oral bioavailability	–	–	CC(C)(C)C(=O)OCOC(=O)[C@@H](Cc1c[nH]c2ccccc12)NC(=O)CC[C@@H](N)C(=O)O [Apo839, H-D-Glu(D-Trp-OCH2O—CO—C(CH3)3)—OH]	–
–	–	–	CN(C)C(=O)COC(=O)[C@@H](Cc1c[nH]c2ccccc12)NC(=O)CC[C@@H](N)C(=O)O [Apo893, H-D-Glu(D-Trp-O—CH2CO—N(CH3)2)—OH]	biotransformation to thymodepressin (Apo805) in human hepatocytes (human hepatocytes; in words): not readily converted to thymodepressin
–	5.9	4.6	N[C@H](CCC(=O)N[C@@H](Cc1c[nH]c2ccccc12)C(=O)O)C(=O)OCCC(F)(F)F [Apo886]	–
–	>24	> 2.0	CCOC(=O)[C@@H](Cc1c[nH]c2ccccc12)NC(=O)CC[C@@H](N)C(=O)O [Apo835, H-D-Glu(D-Trp-OEt)-OH, reference compound]	percent conversion to Apo805 within indicated time, Human hepatocytes (human hepatocytes; in 2 h): 11%
